Assay results as given in PMC8347512, “Synthesis and Biological Assessment of 4,1-Benzothiazepines with Neuroprotective Activity on the Ca^2+ Overload for the Treatment of Neurodegenerative Diseases and Stroke” (Molecules, 2021).
Like-named read-outs stand apart in the source and are kept apart here.

Columns and labels:
NMDA receptors = assay: Blockade of NMDA-evoked cytosolic Ca2+ elevation (Fluo-4/AM) in rat cortical neurons; format: cell-based
Protocol: (§1) The neuroblastoma SH-SY5Y cell line was obtained from the American Type Culture Collection (ATCC-CRL-2266), maintained and cultured in a 1:1 mixture of MEM and F12 media with 10% of fetal bovine serum (FBS), according to procedures previously described. For fluorescence-based [Ca^2+]c measurements, SH-SY5Y cells were seeded in clear-bottomed, 96-well black plates at a density of 40,000 cells/well. For viability assays, SH-SY5Y cells were seeded in 48-well plates at a density of 70,000 cells/well following the procedure recently reported. Rat cortical embryonic neurons were prepared from 19-day-old embryos directly seeded in the plate well treated with poly-D-lysine in neurobasal medium (Gibco 21103, Madrid, Spain) supplemented with 1% of L-glutamine (Sigma, G6392), 0.5% of penicillin/streptomycin and 0.1% of gentamincine. In fluorescence-based [Ca^2+]c measurement, neurons were seed at clear-bottomed, 96-well black plates at a density of 30,000 cells/well. For viability assays, the rat cortical neurons were also seeded in 48-well plates at a density of 40,000 cells/well. All the biological assays were conducted under sterile conditions.
To assess the blocking effect of compounds on the VGCC, we used SH-SY5Y cells charged with the Ca^2+-sensitive fluorescent dye Fluo-4/AM at 10 μM in Krebs-HEPES buffer, following a protocol recently described. Compounds were incubated at the desired concentrations (1, 3, 10, and 30 μM). The Ca^2+ entry was favored by addition of K^+ 70 mM to the extracellular medium. […] Rat cortical neurons were charged with Fluo-4/AM at 3 μM in Krebs-HEPES buffer and compounds incubated at same concentrations than before. To stimulate Ca^2+ entry through the NMDA-sensitive glutamate receptors, NMDA was applied at 10 μM. In both cases, fluorescence oscillations as result of the [Ca^2+]c increases were real-time monitored in a multi-well fluorescence plate reader (FluoStar Optima, BMG, Germany), with excitation and emission wavelengths of 485 and 520 nm, respectively. Data were calculated as fluorescence increase (ΔF), according to the formula: ΔF=Fx−Fo /Fmax−Fmin where Fx is the maximum fluorescence obtained after Ca^2+ entry stimulation, F0 is the averaged fluorescence before, Fmax is the maximum fluorescence of the well obtained by treating cells with 5% Triton X-100, and the Fmin is the minimum fluorescence of well obtained by adding MnCl2 1 M to the previously Triton-lysed cells. The ΔF data were normalized respect to the control (ΔFc).

VGCC = assay: Blockade of 70 mM K+-evoked cytosolic Ca2+ elevation (Fluo-4/AM) in SH-SY5Y cells; format: cell-based; conditions: for Decrease of K+-evoked Ca2+ signaling compared with nifedipine: compounds 10 μM, nifedipine 10 μM
Protocol: as §1
To assess the blocking effect of compounds on the VGCC, we used SH-SY5Y cells charged with the Ca^2+-sensitive fluorescent dye Fluo-4/AM at 10 μM in Krebs-HEPES buffer, following a protocol recently described. Compounds were incubated at the desired concentrations (1, 3, 10, and 30 μM). The Ca^2+ entry was favored by addition of K^+ 70 mM to the extracellular medium. To evaluate the blocking effect of compounds on NMDA receptors, we have followed a protocol recently reported by our research group. Rat cortical neurons were charged with Fluo-4/AM at 3 μM in Krebs-HEPES buffer and compounds incubated at same concentrations than before. To stimulate Ca^2+ entry through the NMDA-sensitive glutamate receptors, NMDA was applied at 10 μM. In both cases, fluorescence oscillations as result of the [Ca^2+]c increases were real-time monitored in a multi-well fluorescence plate reader (FluoStar Optima, BMG, Germany), with excitation and emission wavelengths of 485 and 520 nm, respectively. Data were calculated as fluorescence increase (ΔF), according to the formula: ΔF=Fx−Fo /Fmax−Fmin where Fx is the maximum fluorescence obtained after Ca^2+ entry stimulation, F0 is the averaged fluorescence before, Fmax is the maximum fluorescence of the well obtained by treating cells with 5% Triton X-100, and the Fmin is the minimum fluorescence of well obtained by adding MnCl2 1 M to the previously Triton-lysed cells. The ΔF data were normalized respect to the control (ΔFc). Data are presented as percentage of blockade (100% ΔF) at the concentration of 10 μM, or as IC50, i.e., the concentration of compound capable of halving the ΔFc (%ΔF = 50).

[1] = Blood-brain barrier permeation assay (PAMPA), porcine brain lipid; format: in vitro ADME; conditions: read-out: Pe, in vitro permeability (PAMPA-BBB)
Protocol: The parallel artificial membrane permeation assay (PAMPA) was used to predict the capacity of compounds to cross the blood–brain barrier (BBB) by passive diffusion, in a similar manner as previously described. Compounds were dissolved in 10 mM phosphate-buffered saline (PBS) buffer (pH 7.4) to the concentration of 100 µM. The filter membrane of the donor 96-well plate (Multiscreen IP sterile clear plate PDVF membrane, pore size […]) was impregnated with 4 µL of porcine brain lipid (PBL) (Avanti Polar Lipids, Inc., Alabaster, AL, USA) in dodecane (20 mg/mL), and after 5 min, 180 µL of each compound solution was added. The acceptor 96-well plate (Multiscreen, Millipore Corp. Burlington, MA, USA) was filled with 180 µL of PBS and 1% of DMSO. Finally, the donor filter plate was carefully put on the acceptor plate to form a “sandwich”, which was left undisturbed for 4 h at rt. After incubation, an UV plate reader determined the concentration of compounds in both acceptor and donor wells (150 µL/well) as the maximum absorption wavelength of each compound. Concentration of the compounds in the donor and acceptor well, and equilibrium concentration were calculated from the standard curve and expressed as the permeability (Pe), according to the following formula: logPe=logC×−ln1−drugacceptor/drugequilibrium whereC=Vdonor×Vaceptor/Vdonor+Vaceptor×Area×Time)
Results are expressed as mean ± SEM of three different experiments in duplicate.

rat cortical neurons [2] = assay: Per se toxicity, MTT reduction, rat cortical neurons; format: cell-based; conditions: 48 h
Protocol: as §1
The per se toxicity of the new synthetized compounds was assessed in both cell cultures by the method of MTT reduction. After 24 h of seeding, SH-SY5Y cells were preincubated with compounds at different concentrations (1, 3, 10, and 30 μM) for 24 h. Afterwards, MEM/F12 medium was replaced by one fresh with 1% FBS with the compounds at the same concentration. The viability of cultures was measured 20 h later, following a procedure recently described. In the case of rat cortical neurons, 7 days after seeding, compounds were added to the wells to reach a final concentration of 1, 3, 10, and 30 μM. Forty-eight hours later, neuron viability was measure by the same procedure as the one described for SH-SY5Y cells.

SH-SY5Y cells = assay: Neuroprotection against rotenone/oligomycin A (R/O), MTT, SH-SY5Y cells; format: cell-based; conditions: R/O 30/10 μM, compounds 10 μM
Protocol: as §1
(§2) The effect of compounds on the SH-SY5Y cells and rat cortical neurons viability compromised of different toxics was also evaluated by method of MTT reduction. Twenty-four hours after seeding, SH-SY5Y cells were preincubated with compounds at the concentration of 10 μM for 24 h. Afterwards, MEM/F12 medium was replaced by one fresh with 1% FBS, compounds at the same concentration, and rotenone/oligomycin A administered to media at the concentration of 30/10 μM, respectively. The cultures’ viability was measured 20 h later, following the MTT procedure recently described. As reference neuroprotective compound, melatonin 10 nM was selected. In the case of the rat cortical neurons, 7 days after seeding in 48-well plates, neurons were preincubated adding the compounds at a final concentration of 10 μM for 24 h. Then, toxic stimuli of 50 µM of glutamate was added to the wells. After 20 h, cell viability was measured by the MTT procedure. Here, the reference protective compound used was memantine (30 nM).

rat cortical neurons [3] = assay: Neuroprotection against glutamate 50 μM, MTT, rat cortical neurons; format: cell-based; conditions: compounds 10 μM
Protocol: as §1, §2

[4] = compounds 1 to 30 μM, Fluo-4/AM, read-out: IC50, concentration halving the 70 mM K+-evoked Ca2+ elevation
[5] = rat cortical embryonic neurons, NMDA 10 μM, compounds 1 to 30 μM; read-out: IC50, NMDA-evoked [Ca2+]c elevation
[6] = porcine brain lipid, pH 7.4, 4 h, rt, Pe ≥ 4 indicates passive BBB crossing

| SMILES | IC50 (VGCC; [4]) [µM] | IC50 (NMDA receptors; [5]) [µM] | melting point [°C] | Effect on cell viability of rat cortical neurons at 30 μM (rat cortical neurons [2]) | other results |
| --- | --- | --- | --- | --- | --- |
| CC12CC3CC(C)(C1)CC(N)(C3)C2 [Memantine, memantine, reference compound] | – | – | – | – | IC50 (NMDA receptors; read-out: IC50, NMDA-evoked [Ca2+]c elevation; rat cortical embryonic neurons, NMDA 10 μM, compounds 1 to 30 μM): 17 µM |
| COC(=O)C1=C(C)NC(C)=C(C(=O)OC)C1c1ccccc1[N+](=O)[O-] [Nifedipine, nifedipine, reference compound] | 15 | – | – | – | – |
| O=C1CSC(c2ccc([N+](=O)[O-])cc2)c2cc(Cl)ccc2N1 (stereo not shown) [compound 14, 7-Chloro-5-(4′-nitrophenyl)-3,5-dihydro-4,1-benzothiazepin-2-(1H)-one] | 29.9 | > 30 | 289 to 291 | – | Papp at 4 h, 100 µM [1, 6]: < 4 ×10⁻⁶ cm/s |
| O=C1CSC(c2ccncc2)c2cc(Cl)ccc2N1 (stereo not shown) [compound 15, 7-Chloro-5-(pyridin-4-yl)-3,5-dihydro-4,1-benzothiazepin-2-(1H)-one] | 20 | > 30 | 224 to 226 | – | – |
| O=C1CSC(c2cccnc2)c2cc(Cl)ccc2N1 (stereo not shown) [compound 16, 7-Chloro-5-(pyridin-3-yl)-3,5-dihydro-4,1-benzothiazepin-2-(1H)-one] | > 30 | > 30 | 224 to 226 | – | – |
| O=C1CSC(c2ccccn2)c2cc(Cl)ccc2N1 (stereo not shown) [compound 17, 7-Chloro-5-(pyridin-2-yl)-3,5-dihydro-4,1-benzothiazepin-2-(1H)-one] | 24.7 | > 30 | 215 to 217 | – | – |
| O=C1CSC(c2ccncc2Cl)c2cc(Cl)ccc2N1 (stereo not shown) [compound 18, 7-Chloro-5-(3′-chloropyridin-4-yl)-3,5-dihydro-4,1-benzothiazepin-2-(1H)-one] | 11.5 | 28.3 | 226 to 229 | slightly reduced cell viability in a significant manner | Decrease of K+-evoked Ca2+ signaling compared with nifedipine (VGCC): in a similar manner or even better than the reference compound nifedipine; Papp at 4 h, 100 µM ([1]; pH 7.4, threshold value of 40 nm/s): > 4 ×10⁻⁶ cm/s |
| CN(C)c1ccc2c(c1)C(c1ccccc1Cl)SCC(=O)N2 (stereo not shown) [compound 26, 5-(2′-Chlorophenyl)-7-dimethylamino-3,5-dihydro-4,1-benzothiazepin-2-(1H)-one] | 25.4 | > 30 | 178 to 181 | slightly reduced cell viability in a significant manner | Protection against R/O-induced oxidative stress (in words) (SH-SY5Y cells): clear trend to protect against oxidative stress; Papp at 4 h, 100 µM [1, 6]: < 4 ×10⁻⁶ cm/s |
| COc1ccccc1C1SCC(=O)Nc2ccc(N(C)C)cc21 (stereo not shown) [compound 27, 7-Dimethylamino-5-(2′-methoxyphenyl)-3,5-dihydro-4,1-benzothiazepin-2-(1H)-one] | – | 18.5 | 233 to 236 | slightly reduced cell viability in a significant manner | Mitigation of the NMDA-elicited Ca2+ increase compared with memantine (NMDA receptors; rat cortical neurons, compounds 10 μM, memantine 10 μM): noticeable mitigation of the NMDA-elicited Ca^2+ increase, even higher than that exerted by the reference compound memantine; IC50 (VGCC; read-out: IC50, concentration halving the 70 mM K+-evoked Ca2+ elevation, compounds 1 to 30 μM, Fluo-4/AM): 29.3 µM; Protection against R/O-induced oxidative stress (in words) (SH-SY5Y cells): clear trend to protect against oxidative stress |
| CN(C)c1ccc2c(c1)C(c1ccc(F)cc1)SCC(=O)N2 (stereo not shown) [compound 28, 7-Dimethylamino-5-(4′-fluorophenyl)-3,5-dihydro-4,1-benzothiazepin-2-(1H)-one] | 19.5 | > 30 | 219 to 222 | slightly reduced cell viability in a significant manner | Protection against R/O-induced oxidative stress (in words) (SH-SY5Y cells): clear trend to protect against oxidative stress |
| O=C1CSC(c2ccc(F)cc2)c2ccccc2N1 (stereo not shown) [compound 32, 5-(4′-Fluorophenyl)-3,5-dihydro-4,1-benzothiazepin-2-(1H)-one] | 9.2 | > 30 | 251 to 254 | – | Protection against glutamate-elicited neurotoxicity (in words) (rat cortical neurons [3]): statistically significant dissipation of the glutamate-elicited neurotoxicity; Decrease of K+-evoked Ca2+ signaling compared with nifedipine (VGCC): in a similar manner or even better than the reference compound nifedipine; Papp at 4 h, 100 µM [1, 6]: < 4 ×10⁻⁶ cm/s |
| COc1ccccc1C1SCC(=O)Nc2ccccc21 (stereo not shown) [compound 33, 5-(2′-Methoxyphenyl)-3,5-dihydro-4,1-benzothiazepin-2-(1H)-one] | > 30 | > 30 | 216 to 218 | slightly reduced cell viability in a significant manner | Protection against glutamate-elicited neurotoxicity (in words) (rat cortical neurons [3]): statistically significant dissipation of the glutamate-elicited neurotoxicity |
